Results from US9763957B2, “Autotaxin inhibitors” (Novartis AG, priority 2013, dated 2017).

Target: Recombinant human ATX (Homo sapiens (Human), UniProt Q13822)
Experiment: ATX inhibition assay (choline release, Amplex Red fluorescence)
Type: biochemical
Conditions: ATX 10 nM, LPC 18:1 10 μM, 37° C., 20 min pre-incubation; mean of n≧2
How it was run: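 Activity was taken from the slope of resorufin fluorescence (530/590 nm, read every 2 min for 40 min at 37 °C) produced by choline liberated from 10 μM oleoyl LPC.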

| Structure (SMILES) | IC50 |
| --- | --- |
| Cc1nnn(Cc2cc(Cl)ccc2/C=C/C(=O)N2CCC(Oc3ccccc3C(=O)N(C)C)CC2)n1 [Example 49.13, (E)-2-((1-(3-(4-Chloro-2-((5-methyl-2H-tetrazol-2-yl)methyl)phenyl)acryloyl)piperidin-4-yl)oxy)-N,N-dimethyl benzamide] | 17 nM |
| Cc1nnn(Cc2cc(Cl)ccc2/C=C/C(=O)N2CCCC[C@H]2C)n1 [Example 49.14, (R,E)-3-(4-Chloro-2-((5-methyl-2H-tetrazol-2-yl)methyl)phenyl)-1-(2-methylpiperidin-1-yl)prop-2-en-1-one] | 85 nM |
| CC(=O)C1CCCN(C(=O)/C=C/c2ccc(Cl)cc2Cn2nnc(C)n2)C1 (centres unmarked) [Example 49.15, (E)-1-(3-Acetylpiperidin-1-yl)-3-(4-chloro-2-((5-methyl-2H-tetrazol-2-yl)methyl)phenyl)prop-2-en-1-one] | 127 nM |
| Cc1nnn(Cc2cc(Cl)ccc2/C=C/C(=O)N2CCCC(c3nncn3C)C2)n1 (centres unmarked) [Example 49.16, (E)-3-(4-Chloro-2-((5-methyl-2H-tetrazol-2-yl)methyl)phenyl)-1-(3-(4-methyl-4H-1,2,4-triazol-3-yl)piperidin-1-yl)prop-2-en-1-one] | 1060 nM |
| COCC1CCCN(C(=O)/C=C/c2ccc(Cl)cc2Cn2nnc(C)n2)C1 (centres unmarked) [Example 49.17, (E)-3-(4-Chloro-2-((5-methyl-2H-tetrazol-2-yl)methyl)phenyl)-1-(3-(methoxymethyl)piperidin-1-yl)prop-2-en-1-one] | 222 nM |
| Cc1nnn(Cc2cc(Cl)ccc2/C=C/C(=O)N2CC[C@H](NC(=O)C(F)(F)F)C2)n1 [Example 49.18, (S,E)-N-(1-(3-(4-Chloro-2-((5-methyl-2H-tetrazol-2-yl)methyl)phenyl)acryloyl)pyrrolidin-3-yl)-2,2,2-trifluoroacetamide] | 130 nM |
| CNC(=O)COC1CCN(C(=O)/C=C/c2ccc(Cl)cc2Cn2nnc(C)n2)CC1 [Example 49.19, (E)-2-((1-(3-(4-Chloro-2-((5-methyl-2H-tetrazol-2-yl)methyl)phenyl)acryloyl)piperidin-4-yl)oxy)-N-methylacetamide] | 176 nM |
| Cc1nnn(Cc2cc(Cl)ccc2/C=C/C(=O)N2CCN(C(=O)c3ccco3)CC2)n1 [Example 49.20, (E)-3-(4-Chloro-2-((5-methyl-2H-tetrazol-2-yl)methyl)phenyl)-1-(4-(furan-2-carbonyl)piperazin-1-yl)prop-2-en-1-one] | 110 nM |
| Cc1nnn(Cc2cc(Cl)ccc2/C=C/C(=O)N2CCN(c3ccn(C)n3)C[C@H]2C)n1 [Example 49.21, (R,E)-3-(4-Chloro-2-((5-methyl-2H-tetrazol-2-yl)methyl)phenyl)-1-(2-methyl-4-(1-methyl-1H-pyrazol-3-yl)piperazin-1-yl)prop-2-en-1-one] | 16 nM |
| CCNC(=O)COC1CCCN(C(=O)/C=C/c2ccc(Cl)cc2Cn2nnc(C)n2)C1 (centres unmarked) [Example 49.22, (E)-2-((1-(3-(4-Chloro-2-((5-methyl-2H-tetrazol-2-yl)methyl)phenyl)acryloyl)piperidin-3-yl)oxy)-N-ethylacetamide] | 110 nM |
| COC(=O)C1COCCN1C(=O)/C=C/c1ccc(Cl)cc1Cn1nnc(C)n1 (centres unmarked) [Example 49.23, (E)-Methyl 4-(3-(4-Chloro-2-((5-methyl-2H-tetrazol-2-yl)methyl)phenyl)acryloyl)morpholine-3-carboxylate] | 78 nM |
| COCC1CCN(C(=O)/C=C/c2ccc(Cl)cc2Cn2nnc(C)n2)CC1 [Example 49.24, (E)-3-(4-Chloro-2-((5-methyl-2H-tetrazol-2-yl)methyl)phenyl)-1-(4-(methoxymethyl)piperidin-1-yl)prop-2-en-1-one] | 45 nM |
| Cc1nnn(Cc2cc(Cl)ccc2/C=C/C(=O)N2CCCN(c3ncccn3)CC2)n1 [Example 49.25, (E)-3-(4-Chloro-2-((5-methyl-2H-tetrazol-2-yl)methyl)phenyl)-1-(4-(pyrimidin-2-yl)-1,4-diazepan-1-yl)prop-2-en-1-one] | 10 nM |
| CC(=O)N1CCCN(C(=O)/C=C/c2ccc(Cl)cc2Cn2nnc(C)n2)CC1 [Example 49.26, (E)-1-(4-Acetyl-1,4-diazepan-1-yl)-3-(4-chloro-2-((5-methyl-2H-tetrazol-2-yl)methyl)phenyl)prop-2-en-1-one] | 160 nM |

Second part, the molecule after the results:

| IC50 | Structure (SMILES) |
| --- | --- |
| 110 nM | COC(=O)C1SCCN1C(=O)/C=C/c1ccc(Cl)cc1Cn1nnc(C)n1 (centres unmarked) [Example 49.27, (E)-Methyl 3-(3-(4-chloro-2-((5-methyl-2H-tetrazol-2-yl)methyl)phenyl)acryloyl)thiazolidine-2-carboxylate] |
| 10 nM | Cc1nnn(Cc2cc(Cl)ccc2/C=C/C(=O)N2CCN(c3ncccc3C#N)CC2)n1 [Example 49.28, (E)-2-(4-(3-(4-Chloro-2-((5-methyl-2H-tetrazol-2-yl)methyl)phenyl)acryloyl)piperazin-1-yl)nicotinonitrile] |
| 78 nM | Cc1nnn(Cc2cc(Cl)ccc2/C=C/C(=O)N2CCN(c3ncccc3C(=O)N3CCCC3)CC2)n1 [Example 49.29, (E)-3-(4-Chloro-2-((5-methyl-2H-tetrazol-2-yl)methyl)phenyl)-1-(4-(3-(pyrrolidine-1-carbonyl)pyridin-2-yl)piperazin-1-yl)prop-2-en-1-one] |
| 52 nM | CCCNC(=O)COC1CCN(C(=O)/C=C/c2ccc(Cl)cc2Cn2nnc(C)n2)CC1 [Example 49.30, (E)-2-((1-(3-(4-Chloro-2-((5-methyl-2H-tetrazol-2-yl)methyl)phenyl)acryloyl)piperidin-4-yl)oxy)-N-propylacetamide] |
| 77 nM | Cc1nnn(Cc2cc(C(F)(F)F)ccc2/C=C/C(=O)N2CCC(C(=O)O)CC2)n1 [Example 51, (E)-1-(3-(2-((5-Methyl-2H-tetrazol-2-yl)methyl)-4-(trifluoromethyl)phenyl)acryloyl)piperidine-4-carboxylic acid] |
| 17 nM | Cc1nnn(Cc2cc(C(F)F)ccc2/C=C/C(=O)N2CCC(c3nnc(C)o3)CC2)n1 [Example 52, (E)-3-(4-(Difluoromethyl)-2-((5-methyl-2H-tetrazol-2-yl)methy)phenyl)-1-(4-(5-methyl-1,3,4-oxadiazol-2-yl)piperidin-1-yl)prop-2-en-1-one] |
| 2 nM | Cc1nnn(Cc2cc(C(F)(F)F)ccc2/C=C/C(=O)N2CCN(Cc3cnn(C)c3)CC2)n1 [Example 53, (E)-1-(4-((1-Methyl-1H-pyrazol-4-yl)methyl)piperazin-1-yl)-3-(2-((5-methyl-2H-tetrazol-2-yl)methyl)-4-(trifluoromethyl)phenyl)prop-2-en-1-one] |
| 8.9 nM | Cc1nnn(Cc2cc(OC(F)(F)F)ccc2/C=C/C(=O)N2CCC(c3nnc(C)o3)CC2)n1 [Example 54, (E)-1-(4-(5-Methyl-1,3,4-oxadiazol-2-yl)piperidin-1-yl)-3-(2-((5-methyl-2H-tetrazol-2-yl)methyl)-4-(trifluoromethoxy)phenyl)prop-2-en-1-one] |
| 8 nM | Cc1nnn(Cc2cc(C(F)F)ccc2/C=C/C(=O)N2CCC(c3noc(C)n3)CC2)n1 [Example 55, (E)-3-(4-(Difluoromethyl)-2-((5-methyl-2H-tetrazol-2-yl)methy)phenyl)-1-(4-(5-methyl-1,2,4-oxadiazol-3-yl)piperidin-1-yl)prop-2-en-1-one] |
